Assay results taken from patent publication US4731470A, “[(5,6-dichloro-3-oxo-2,9a-alkano-2,3,9,9a-tetrahydro-1H-fluoren-7-yl)oxy] alkanoic acids and alkanimidamides” (Merck & Co., Inc., priority 1986, dated 1988).

How the values were obtained:
[1] = tested on: cat cerebrocortical tissue slices; assay: In vitro cat cerebrocortical tissue slice assay (HCO3^- -stimulated tissue swelling); type: cell-based; settings: Felis catus, read-out: percentage inhibition of tissue swelling (% Inhib.)
Procedure: Using the in vitro cat cerebrocortical tissue slice assay, described in Example 1, compounds of the present invention can be tested for activity. This test provides the principal in vitro evaluation and consists of a determination of concentration vs. response curve. The addition of HCO3^- to isotonic, K^+ -rich saline-glucose incubation media is known to specifically stimulate the transport of Cl^- coupled with Na^+ and an osmotic equivalent of water in incubating slices of mammalian cerebral cortex. […] After addition of drug to the incubation media, detailed drug concentration-response curves are then obtained. The data are expressed as percent HCO3^- -stimulated swelling vs. drug concentration, from which the concentration of drug providing 50% inhibition of HCO3^- -stimulated swelling (I50 in molarity) is interpolated.
Adult cats of 2-3 kg body weight are employed in tissue slice studies. Prior to sacrifice, the animals are anesthetized with ketamine hydrochloride (Ketaset), 10 mg/kg intramuscularly. Eight (three control, five experimental) pial surface cerebrocortical tissue slices (0.5-mm thick; approximately 150 mg initial fresh weight) are cut successively with a calibrated Stadie-Riggs fresh tissue microtome without moistening and weighed successively on a torsion balance. During the slice preparation all operations except weighing are confined to a humid chamber. Each slice is rapidly placed in an individual Warburg flask containing 2 ml of incubation medium at room temperature. The basic composition of the incubation media, in millimoles per liter, is as follows: glucose, 10; CaCl2, 1.3; MgSO4, 1.2; KHSO4, 1.2; Hepes (N-2-hydroxyethylpiperazine-N'-2-ethanesulfonic acid, titrated with NaOH to pH 7.4), 20. Except when adding HCO3^-, the osmolarity of the media is maintained isosmotic (approximately 285 mOsm/L) by reciprocal changes of Na^+ or K^+ to achieve a concentration of K^+ of 27 mM. The basic medium was saturated with oxygen by bubbling pure oxygen through the solution for 30 minutes before use. […]
Following the 60-minute incubation period, tissue slices are separated from incubation medium by filtration, reweighed, and homogenized in 1N HClO4 (10% w/v) for electrolyte analysis. […] Control slice swelling is expressed as microliters per gram initial preswelling fresh weight. The effectiveness of an inhibitor at a given concentration is measured by the amount of HCO3^- -stimulated swelling that occurred in its presence, computed as a percent of the maximum possible. Tissue and media Na^+ and K^+ levels are determined by emission flame photometry with Li^+ internal standard; Cl^- levels are determined by amperometric titration. Tissue viability during incubation is monitored by manometry.

astroglial edema = settings: cited from earlier work
[2] = tested on: animals receiving experimental in vivo head injury; settings: cited from earlier work
[3] = tested on: clinical cases of head injury; settings: cited from earlier work

O=C(O)COc1cc2c(c(Cl)c1Cl)C1=CC(=O)C3CCCC1(C2)C3 (racemic) [Example 2, [(5,6-Dichloro-3-oxo-2,9a-propano-2,3,9,9a-tetrahydro-1H-fluoren-7-yl)oxy]acetic acid]
inhibition at 1 µM ([1]; conc. 10^-6 M): 81%
inhibition at 0.1 µM ([1]; conc. 10^-7 M): 54%
inhibition at 0.01 µM ([1]; conc. 10^-8 M): 29%
inhibition at 0.001 µM ([1]; conc. 10^-9 M): 10%

C=C(CC)C(=O)c1ccc(OCC(=O)O)c(Cl)c1Cl [ethacrynic acid]
activity in in vitro assays (astroglial edema): exhibited activity
activity in in vivo assays [2]: exhibited activity
reducing mortality in clinical cases of head injury [3]: effective in reducing mortality
